Measured values published in patent US11878015B2, “Piperidine-substituted Mnk inhibitors and methods related thereto” (eFFECTOR Therapeutics Inc., priority 2017, dated 2024).
Where two headings read alike, the source gives them in different places.

Tests used:
[1] = High throughput thermodynamic solubility procedure; format: physicochemical; conditions: for solubility in fasted state simulated gastric fluid (FaSSGF), in words: pH value of 1.6
Procedure: In a 96-well plate, 10 mM DMSO stocks (50-100 uL) of each compound were dried under heated nitrogen flow using a SPE-96 plate dryer (upper flow rate=50 L/min, temperature=60° C., lower flow rate=20 L/min, temperature=80° C.). […] Compounds prepared as the free base were assessed in conditions with and without one equivalent of TFA added. The theoretical maximum concentrations of the aqueous solutions were 10 mM. Each well was capped and incubated for a period of 18 hours at room temperature or 37° C. Mixing of the solutions during the incubation period was performed by either shaking the plate at 750 rpm or adding StirStix (stainless steel capillaries) and agitating the mixture using a rotary magnetic tumble stirrer. After the incubation period, aliquots from each well were filtered. Solubility of all samples were quantified following comparison to standards of known concentration by HPLC-UV.

[2] = tested on: PD-1; experiment: PD-1 (CD279) expression on PHA/PMA-activated Jurkat T cells, flow cytometry; format: cell-based; conditions: Homo sapiens, percentage of inhibition of PD-1 positive cells at 10 μM, 48 hours
Procedure: To examine the effect of MNK inhibitors on PD-1 expression, Jurkat cells (Clone E6.1, ATCC, transformed T cells) were used, which express PD-1 when activated through T cell receptor (TCR) signaling. Briefly, Jurkat cells were grown in 1×RPMI with 1×Pen/Strep, and 10% FBS, then about 3×10^6 Jurkat cells were activated in presence of 1 μg/mL PHA (Sigma) and 50 ng/mL PMA (Sigma). Test Cells were treated simultaneously with various concentrations of an MNK inhibitor (0, 0.01, 0.1, 1, 3 and 10 μM). After 48 hours, culture supernatants were harvested and examined via sandwich ELISA for the presence of IL-2 using human IL-2 ELISA DuoSet (R&D Systems, Minneapolis, Minn.). The level of PD-1 on Jurkat cells was examined by incubating with human FcR block, then contacted with allophycocyanin (APC) conjugated anti-PD-1 antibody (5 μl per 100 μl volume of test, Biolegend, San Diego, CA) for 25 minutes at 4° C., without washing the cells, fixable dead cell stain (1:10,000; BD Biosciences, San Jose, CA) was added and incubated further for 10 minutes at 4° C. Cells were washed two times with flow buffer, and finally cells were fixed with fixation buffer for 15 minutes at 4° C. After fixation, cells were washed twice with flow buffer and re-suspended in flow buffer and assessed for fluorescence using BD Accuri C6 flow cytometer. Data were analyzed using the C6 cytometer software (BD Biosciences, San Jose, CA) or Attune Nxt Cytometer (Invitrogen, Carlsbad, CA).
Activation of Jurkat T cells with PHA and PMA induced the expression of PD-1 on the cell surface of about 25-30% of the stimulated Jurkat cells as compared to uninduced cells (Unstim) and induced a 1,000-fold increase in IL-2 cytokine production, respectively. […] Lastly, MNK inhibition by various different MNK inhibitors had no effect on cell viability. […] To this end, percentage of inhibition of PD-1 positive cells (10 μM) of more than 50% are labelled as “+++”, from 10% to 50% are labelled as “++”, and less than 10% are labelled as “+” (NA means “not available”).

[3] = tested on: Phosphorylated eIF4E; experiment: peIF4E signaling cellular assay (CisBio peIF4E HTRF); format: cell-based; conditions: 2 hrs incubation at 37° C., 12-point curve 20 μM to 0.1 nM; read-out: pEI4IE signaling activity
Procedure: Phosphorylated eIF4E is assayed using the CisBio peIF4E HTRF® assay kit (CisBio, catalogue No. 64EF4PEG). Cells are plated in 96-well tissue-culture treated plate in appropriate growth medium (90 μL). Compounds (10×) are diluted using 3-fold serial dilutions in cell culture medium and added to cells. Plates are incubated for 2 hrs at 37° C. The cell supernatant is carefully removed either by aspirating supernatant or by flicking the plate. Immediately 50 μL of supplemented lysis buffer (1×) is added and incubated for at least 30 minutes at room temperature under shaking. After homogenization by pipeting up and down, 16 μL of cell lysate is transferred from the 96-well cell-culture plate to a 384-well small volume white plate. 4 μL of premixed antibody solutions (vol/vol) is prepared in the detection buffer and added. The plate is covered with a plate sealer and incubated overnight at room temperature. The fluorescence emissions at two different wavelengths are read (665 nm and 620 nm) on a Wallac Victor2. Emission ratios are converted into percent inhibitions and imported into GraphPad Prism software. […] IC50 values are determined using a nonlinear regression model available in GraphPad Prism 5.
To this end, IC50 values of less than 0.001 μM are labelled as “+++”, from 0.001 to 0.01 μM are labelled as “++”, and greater than 0.01 μM are labelled as “+” (NA means “not available”).

[4] = Fasted-State Simulated Intestinal Fluid (FaSSIF), pH 6.5, fassif, thermodynamic from solid, Fasted-State Simulated Intestinal Fluid, 18 hours incubation, theoretical maximum 10 mM, read-out: Aqueous Solubility FaSSIF (pH 6.5)
[5] = thermodynamic from solid, deionized water, 18 hours incubation, theoretical maximum 10 mM, read-out: Aqueous Solubility DI H2O

Row | solubility in fasted state simulated gastric fluid (FaSSGF), in words [1] | solubility at 18 h [1, 4] | solubility at 18 h [1, 5] | IC50 [3] [nM] | Compound | inhibition at 10 µM [2] [%] | solubility in DI water at 18 h ([1]; thermodynamic from solid, deionized water, 18 hours incubation, theoretical maximum 10 mM) [µM]
1 |  |  |  | < 1 | Cc1cc(Nc2ncnc(N)c2Cl)c(=O)n2c1C(=O)NC21CCN(CCC(F)(F)F)CC1 [Compound 3BB] | < 10 | 
2 |  | 256 µM | 2600 µM | 1 to 10 | Cc1cc(Nc2ncnc(N)c2Cl)c(=O)n2c1C(=O)NC21CCCNC1 (stereo not shown) [Compound 3C] | > 50 | 
3 | excellent solubility | 110 µM | 3300 µM | 1 to 10 | Cc1cc(Nc2ncnc(N)c2Cl)c(=O)n2c1C(=O)NC21CCCN(C)C1 (stereo not shown) [Compound 3D] |  | 
4 |  |  |  | > 10 | Cc1cc(Nc2ncnc(N)c2C)c(=O)n2c1C(=O)NC21CCCN(CCC(F)(F)F)C1 (stereo not shown) [Compound 3E] |  | 
5 |  |  | 240 µM | 1 to 10 | Cc1cc(Nc2ncnc(N)c2Cl)c(=O)n2c1C(=O)NC21CCCN(CCC(F)(F)F)C1 (stereo not shown) [Compound 3F] |  | 
6 |  |  |  | 1 to 10 | Cc1cc(Nc2ncnc(N)c2C)c(=O)n2c1C(=O)NC21CCN(CC(C)(C)F)CC1 [Compound 3GG] |  | 
7 |  |  |  | 1 to 10 | Cc1cc(Nc2ncnc(N)c2C)c(=O)n2c1C(=O)NC21CCCN(CC(F)F)C1 (stereo not shown) [Compound 3G] |  | 
8 |  |  |  | > 10 | Cc1cc(Nc2ncnc(N)c2C)c(=O)n2c1C(=O)NC21CCCN(CC2CC2)C1 (stereo not shown) [Compound 3H] |  | 
9 |  |  |  | < 1 | Cc1cc(Nc2ncnc(N)c2Cl)c(=O)n2c1C(=O)NC21CCCN(CC(F)F)C1 (stereo not shown) [Compound 3I] |  | 
10 |  |  |  | 1 to 10 | Cc1cc(Nc2ncnc(N)c2Cl)c(=O)n2c1C(=O)NC21CCCN(CC2CC2)C1 (stereo not shown) [Compound 3J] |  | 
11 |  |  |  | < 1 | Cc1cc(Nc2ncnc(N)c2C)c(=O)n2c1C(=O)NC21CCCN2CCCC21 (stereo not shown) [Compound 3O] |  | 
12 |  |  |  | < 1 | Cc1cc(Nc2ncnc(N)c2Cl)c(=O)n2c1C(=O)NC21CCCN2CCCC21 (stereo not shown) [Compound 3P] |  | 
13 |  | 68 µg/mL |  | < 1 | Cc1cc(Nc2ncnc(N)c2Cl)c(=O)n2c1C(=O)NC21CCCN(C(C)C)C1 (stereo not shown) [Compound 3R] |  | 
14 |  | 107 µg/mL |  | > 10 | Cc1cc(Nc2ncnc(N)c2C)c(=O)n2c1C(=O)NC21CCCN(C(C)(C)C)C1 (stereo not shown) [Compound 3V] |  | 

More lines, now with the values behind:

Row | Compound | solubility in fasted state simulated gastric fluid (FaSSGF), in words [1] | solubility at 18 h [1, 4] | solubility at 18 h [1, 5] | IC50 [3] [nM] | inhibition at 10 µM [2] [%] | solubility in DI water at 18 h ([1]; thermodynamic from solid, deionized water, 18 hours incubation, theoretical maximum 10 mM) [µM]
15 | Cc1cc(Nc2ncnc(N)c2C)c(=O)n2c1C(=O)NC21CCCN(C)C1 (racemic) [rac-1F, 6-((6-amino-5-methylpyrimidin-4-yl)amino)-1′,8-dimethyl-2H-spiro[imidazo[1,5-a]pyridine-3,3′-piperidine]-1,5-dione] | excellent solubility | 240 µM | 4300 µM | 1 to 10 | 10 to 50 | 
16 | Cc1cc(Nc2ncnc(N)c2C#N)c(=O)n2c1C(=O)NC21CCCN(C)C1 (racemic) [rac-2F] | excellent solubility | 79 µg/mL |  | 1 to 10 | 10 to 50 | 
17 | Cc1cc(Nc2ncnc(N)c2C#N)c(=O)n2c1C(=O)N[C@]21CCCN(C)C1 (single isomer, unassigned) [Compound 2Fa] | excellent solubility | 77 µg/mL | 1840 µg/mL | 1 to 10 | 10 to 50 | 
18 | Cc1cc(Nc2ncnc(N)c2C#N)c(=O)n2c1C(=O)N[C@@]21CCCN(C)C1 (single isomer, unassigned) [Compound 2Fb] | excellent solubility | 151 µg/mL | 1770 µg/mL | > 10 | 10 to 50 | 
19 | Cc1cc(Nc2ncnc(N)c2C)c(=O)n2c1C(=O)N[C@]21CCCN(C)C1 (stereo in doubt) [Compound 1Fa, (R)-6-((6-amino-5-methylpyrimidin-4-yl)amino)-1′,8-dimethyl-2H-spiro[imidazo[1,5-a]pyridine-3,3′-piperidine]-1,5-dione] | excellent solubility | 125 µg/mL | > 1850 µg/mL | > 10 | 10 to 50 | 
20 | Cc1cc(Nc2ncnc(N)c2C)c(=O)n2c1C(=O)N[C@@]21CCCN(C)C1 (stereo in doubt) [Compound 1Fb, (S)-6-((6-amino-5-methylpyrimidin-4-yl)amino)-1′,8-dimethyl-2H-spiro[imidazo[1,5-a]pyridine-3,3′-piperidine]-1,5-dione] | excellent solubility | 88 µg/mL | > 1850 µg/mL | 1 to 10 | 10 to 50 | 
21 | Cc1cc(Nc2ncnc(N)c2C)c(=O)n2c1C(=O)NC21CCN(CCC(F)(F)F)CC1 [Compound 3AA] |  | 30 µM | 4400 µM | 1 to 10 | < 10 | 
22 | Cc1cc(Nc2ncnc(N)c2C)c(=O)n2c1C(=O)NC21CCCNC1 (stereo not shown) [Compound 3B] |  |  |  | > 10 |  | 
23 | Cc1cc(Nc2ncnc(N)c2Cl)c(=O)n2c1C(=O)NC21CCN(CCF)CC1 [Compound 3CC] |  | 40 µM | 770 µM | 1 to 10 | 10 to 50 | 
24 | Cc1cc(Nc2ncnc(N)c2Cl)c(=O)n2c1C(=O)NC21CC(C)N(C)C(C)C1 (stereo not shown) [Compound 3EE] |  |  |  | 1 to 10 | > 50 | 
25 | Cc1cc(Nc2ncnc(N)c2Cl)c(=O)n2c1C(=O)NC21CCN(C)C(C)(C)C1 (stereo not shown) [Compound 3FF] |  |  |  | < 1 | 10 to 50 | 
26 | CCN1CCCC2(C1)NC(=O)c1c(C)cc(Nc3ncnc(N)c3C)c(=O)n12 (stereo not shown) [Compound 3N] |  |  |  | 1 to 10 |  | 
27 | Cc1cc(Nc2ncnc(N)c2C)c(=O)n2c1C(=O)NC21CCCN(C(C)C)C1 (stereo not shown) [Compound 3Q] |  |  |  | 1 to 10 |  | 
28 | Cc1cc(Nc2ncnc(N)c2C#N)c(=O)n2c1C(=O)NC21CCCNC1 (stereo not shown) [Compound 3U] |  |  |  | > 10 |  | 
29 | Cc1cc(Nc2ncnc(N)c2Cl)c(=O)n2c1C(=O)NC21CCCN(C(C)(C)C)C1 (stereo not shown) [Compound 3W] |  | 593 µg/mL |  | 1 to 10 |  | 
30 | Cc1cc(Nc2ncnc(N)c2Cl)c(=O)n2c1C(=O)N[C@@]21CCCN(C)C1 [Compound 3X] | excellent solubility |  |  | < 1 |  | 
31 | Cc1cc(Nc2ncnc(N)c2Cl)c(=O)n2c1C(=O)N[C@]21CCCN(C)C1 [Compound 3Y] | excellent solubility |  |  | < 1 |  | 
32 | Cc1cc(Nc2ncnc(N)c2Cl)c(=O)n2c1C(=O)NC21CCN(C2CC2)CC1 [Compound 3Z] |  |  |  | 1 to 10 |  | 
33 | Cc1cc(Nc2ncnc(N)c2Cl)c(=O)n2c1C(=O)NC21CCCCC1.Cl [Compound 4A, 6′-((6-amino-5-chloropyrimidin-4-yl)amino)-8′-methyl-2′H-spiro[cyclohexane-1,3′-imidazo[1,5-a]pyridine]-1′,5′-dione Hydrochloride, reference compound] |  | 45 µM |  |  | > 50 | 300
